From US20140107109A1, “AMINO-DIHYDROTHIAZINE AND AMINO-DIOXIDO DIHYDROTHIAZINE COMPOUNDS AS BETA-SECRETASE ANTAGONISTS AND METHODS OF USE” (Amgen Inc., priority 2012, published 2014) come the findings set out here.

Test [1] deals with Aβ40 in conditioned medium of cells stably expressing Amyloid Precursor Protein (APP). The test can be described thus: In vitro BACE cell-based assay (HEK cell assay), Aβ40 sandwich ELISA. Particulars: Homo sapiens, HEK293. The method, boiled down: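 Aβ40 in conditioned medium was quantified by time-resolved fluorescence sandwich ELISA (pAb40 capture 3 h at 4 °C, biotin-6E10 detection 2 h at 4 °C) after 24 h compound exposure of APP-expressing cells. Doses spanned 10 points from 100 μM or 10 μM top, 0.1% DMSO; IC50 was derived from percent of control.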

The target of test [2] is Beta Secretase enzyme (BACE1) (Homo sapiens, UniProt P56817). The test can be described thus: In vitro enzymatic BACE FRET assay. Format: biochemical. Particulars: read-out: BACE1 FRET assay IC50. The procedure, abridged: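 Readout: dequenched fluorescence (ex 488 nm/[…]) after neutralizing with Tris buffer. Reactions, begun by adding 50 nM quenched peptide substrate spanning the BACE cleavage site, were incubated one hour at pH 4.2 in 0.05 M acetate with 100 uM genapol and 10% final DMSO.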

The next test deals with T1, Cathepsin D (Cat D) (Homo sapiens, UniProt P07339).
T1 construct: Recombinant Cat D was expressed in CHO cells; made in house; host or cells: CHO cells
Nature of the test: In vitro enzymatic Cathepsin D (Cat D) FRET assay. Particulars: read-out: CatD IC50. It is filed as biochemical. The method, boiled down: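 FRET read-out: a fluorophore/quencher-labelled peptide substrate is cleaved by 9 nM Cat D (recombinant, CHO-expressed) following a one-hour preincubation with inhibitor dilutions in DMSO. Tris buffer added to neutralize pH ends the reaction before fluorescence measurement.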

Read-outs that look alike come from different tables or passages of the source.

Chain of Beta Secretase enzyme (BACE1) (P56817 46-501): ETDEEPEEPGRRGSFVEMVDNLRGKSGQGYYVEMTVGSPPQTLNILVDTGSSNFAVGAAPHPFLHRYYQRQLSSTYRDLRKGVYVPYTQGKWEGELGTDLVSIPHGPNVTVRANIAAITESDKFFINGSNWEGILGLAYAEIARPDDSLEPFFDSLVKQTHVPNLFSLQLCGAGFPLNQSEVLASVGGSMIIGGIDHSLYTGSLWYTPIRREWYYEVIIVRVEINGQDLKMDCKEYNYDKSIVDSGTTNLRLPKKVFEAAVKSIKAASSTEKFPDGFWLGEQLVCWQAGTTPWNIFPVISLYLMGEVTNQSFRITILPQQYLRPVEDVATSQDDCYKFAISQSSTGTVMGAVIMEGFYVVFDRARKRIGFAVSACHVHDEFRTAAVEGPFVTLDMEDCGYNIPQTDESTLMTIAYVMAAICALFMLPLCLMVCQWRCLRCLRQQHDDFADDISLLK
T1 sequence (P07339 65-412, species assumed): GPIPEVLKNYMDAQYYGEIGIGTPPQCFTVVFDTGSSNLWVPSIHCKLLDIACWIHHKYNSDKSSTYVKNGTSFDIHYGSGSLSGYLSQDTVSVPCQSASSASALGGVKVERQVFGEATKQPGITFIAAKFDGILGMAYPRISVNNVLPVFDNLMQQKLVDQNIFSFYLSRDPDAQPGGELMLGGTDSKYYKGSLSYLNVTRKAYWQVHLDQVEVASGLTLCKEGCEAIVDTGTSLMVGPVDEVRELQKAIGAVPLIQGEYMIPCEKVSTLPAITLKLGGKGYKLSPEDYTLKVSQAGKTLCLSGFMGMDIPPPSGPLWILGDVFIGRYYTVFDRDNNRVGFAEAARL

`Cc1cc(C(F)F)cnc1C(=O)Nc1ccc(F)c([C@@]2(C)N=C(N)C3(CC3)S(=O)(=O)[C@@H]2F)c1` [Example 206, N-(3-((5S,6R)-8-amino-5-fluoro-6-methyl-4,4-dioxido-4-thia-7-azaspiro[2.5]oct-7-en-6-yl)-4-fluorophenyl)-5-(difluoromethyl)-3-methyl-2-pyridinecarboxamide]: the IC50 in test [1] (average IC50, HEK cells) was found to be 5.4 nM; in test [2] (average IC50), 1.9 nM; on Cathepsin D (Cat D), 193000 nM.
For `Cc1cc(C(F)F)cnc1C(=O)Nc1ccc(F)c([C@@]2(C)N=C(N)C3(CC3)S(=O)(=O)[C@H]2F)c1` [Example 207, N-(3-((5R,6R)-8-amino-5-fluoro-6-methyl-4,4-dioxido-4-thia-7-azaspiro[2.5]oct-7-en-6-yl)-4-fluorophenyl)-5-(difluoromethyl)-3-methyl-2-pyridinecarboxamide], in that order: 6.7 nM, 0.92 nM and 56100 nM.
Take `COc1cnc2c(Nc3ccc(F)c([C@@]4(C)N=C(N)C5(CC5)S(=O)(=O)[C@H]4F)c3)nccc2n1` [Example 208, N-(3-((5R,6R)-8-amino-5-fluoro-6-methyl-4,4-dioxido-4-thia-7-azaspiro[2.5]oct-7-en-6-yl)-4-fluorophenyl)-2-methoxypyrido[3,4-b]pyrazin-5-amine]: the IC50 in test [1] (average IC50, HEK cells) was 10.7 nM; in test [2] (average IC50), below 2 nM; at Cathepsin D (Cat D), 696000 nM.
For `COc1cnc2c(Nc3ccc(F)c([C@@]4(C)N=C(N)C5(CC5)S(=O)(=O)[C@@H]4F)c3)nccc2n1` [Example 209, N-(3-((5S,6R)-8-amino-5-fluoro-6-methyl-4,4-dioxido-4-thia-7-azaspiro[2.5]oct-7-en-6-yl)-4-fluorophenyl)-2-methoxypyrido[3,4-b]pyrazin-5-amine], in that order: 85.4 nM, 8.5 nM and 157000 nM.
Turning to `CC1(C)C(N)=N[C@](C)(c2cc(NC(=O)c3ccc(Cl)cc3)ccc2F)CS1(=O)=O` [Example 212, N-(3-((3R)-5-amino-3,6,6-trimethyl-1,1-dioxido-3,6-dihydro-2H-1,4-thiazin-3-yl)-4-fluorophenyl)-4-chlorobenzamide], the IC50 in test [1] (average IC50, cell assay) was 23.3 nM; in test [2] (average IC50, enzyme assay) it was 10.2 nM; at Cathepsin D (Cat D), 317000 nM.
For `CC1(C)C(N)=N[C@](C)(c2cc(NC(=O)c3ccc(Cl)cc3F)ccc2F)CS1(=O)=O` [Example 213, N-(3-((3R)-5-amino-3,6,6-trimethyl-1,1-dioxido-3,6-dihydro-2H-1,4-thiazin-3-yl)-4-fluorophenyl)-4-chloro-2-fluorobenzamide], in that order: 29 nM, 12.3 nM and 442000 nM.
Regarding `Cc1cc(Cl)cnc1C(=O)Nc1ccc(F)c([C@@]2(CF)CS(=O)(=O)C3(CC3)C(N)=N2)c1` [Example 215, N-(3-((6R)-8-amino-6-(fluoromethyl)-4,4-dioxido-4-thia-7-azaspiro[2.5]oct-7-en-6-yl)-4-fluorophenyl)-5-chloro-3-methyl-2-pyridinecarboxamide], the IC50 was 903 nM in test [1] (average IC50, HEK cells); 212 nM in test [2] (average IC50); 432000 nM on Cathepsin D (Cat D).
Regarding `Cc1cc(Cl)cnc1C(=O)Nc1ccc(F)c([C@]2(CF)CS(=O)(=O)C3(CC3)C(N)=N2)c1` [Example 216, N-(3-((6S)-8-amino-6-(fluoromethyl)-4,4-dioxido-4-thia-7-azaspiro[2.5]oct-7-en-6-yl)-4-fluorophenyl)-5-chloro-3-methyl-2-pyridinecarboxamide], the 50% inhibitory concentration (IC50) in test [1] (average IC50, HEK cells) was determined as 4.4 nM; in test [2] (average IC50), 0.54 nM; at Cathepsin D (Cat D), 132000 nM.
Regarding `Cc1cc(OC(F)F)cnc1C(=O)Nc1ccc(F)c([C@]2(CF)CS(=O)(=O)C3(CC3)C(N)=N2)c1` [Example 217, N-(3-((6S)-8-amino-6-(fluoromethyl)-4,4-dioxido-4-thia-7-azaspiro[2.5]oct-7-en-6-yl)-4-fluorophenyl)-5-(difluoromethoxy)-3-methyl-2-pyridinecarboxamide], the concentration for half-maximal inhibition (IC50) in test [1] (average IC50, HEK cells) worked out at 6.1 nM; in test [2] (average IC50), 1.2 nM; on Cathepsin D (Cat D), 46800 nM.
For `Cc1cc(OC(F)F)cnc1C(=O)Nc1ccc(F)c([C@@]2(CF)CS(=O)(=O)C3(CC3)C(N)=N2)c1` [Example 218, N-(3-((6R)-8-amino-6-(fluoromethyl)-4,4-dioxido-4-thia-7-azaspiro[2.5]oct-7-en-6-yl)-4-fluorophenyl)-5-(difluoromethoxy)-3-methyl-2-pyridinecarboxamide], in that order: 830 nM, 150 nM and 637000 nM.
For the molecule `COc1cnc2c(Nc3cnc(F)c([C@]4(C)CS(=O)(=O)C(C)(C)C(N)=N4)c3)ncc(F)c2c1` [Example 219, N-(5-((3R)-5-amino-3,6,6-trimethyl-1,1-dioxido-3,6-dihydro-2H-1,4-thiazin-3-yl)-6-fluoro-3-pyridinyl)-5-fluoro-3-methoxy-1,7-naphthyridin-8-amine], the half-maximal inhibitory concentration (IC50) in test [1] (average IC50, cell assay) amounted to 2.9 nM; in test [2] (average IC50, enzyme assay), 1.44 nM; on Cathepsin D (Cat D) it was 39700 nM.
Turning to `CC1(C)C(N)=N[C@](C)(c2cc(Nc3ncc(F)c4cc(Cl)cnc34)cnc2F)CS1(=O)=O` [Example 220, N-(5-((3R)-5-amino-3,6,6-trimethyl-1,1-dioxido-3,6-dihydro-2H-1,4-thiazin-3-yl)-6-fluoro-3-pyridinyl)-3-chloro-5-fluoro-1,7-naphthyridin-8-amine], the concentration for half-maximal inhibition (IC50) was 3.3 nM in test [1] (average IC50, cell assay); below 2 nM in test [2] (average IC50, enzyme assay); 15200 nM on Cathepsin D (Cat D).
Take `CC1(C)C(N)=N[C@](C)(c2cc(Nc3ncc(F)c4cc(C#N)cnc34)cnc2F)CS1(=O)=O` [Example 221, 8-((5-((3R)-5-amino-3,6,6-trimethyl-1,1-dioxido-3,6-dihydro-2H-1,4-thiazin-3-yl)-6-fluoro-3-pyridinyl)amino)-5-fluoro-1,7-naphthyridine-3-carbonitrile]: the half-inhibitory concentration (IC50) in test [1] (average IC50, cell assay) is 5.8 nM; in test [2] (average IC50, enzyme assay), 1.94 nM; at Cathepsin D (Cat D), 43100 nM.
For `COc1cnc2c(Nc3cnc(F)c([C@]4(C)CS(=O)(=O)C(C)(C)C(N)=N4)c3)nccc2n1` [Example 222, N-(5-((3R)-5-amino-3,6,6-trimethyl-1,1-dioxido-3,6-dihydro-2H-1,4-thiazin-3-yl)-6-fluoro-3-pyridinyl)-2-methoxypyrido[3,4-b]pyrazin-5-amine], in that order: 3.6 nM, 2.59 nM and 280000 nM.
Turning to `CC1(C)C(N)=N[C@](C)(c2cc(Nc3nccc4cc(Cl)cnc34)cnc2F)CS1(=O)=O` [Example 223, N-(5-((3R)-5-amino-3,6,6-trimethyl-1,1-dioxido-3,6-dihydro-2H-1,4-thiazin-3-yl)-6-fluoro-3-pyridinyl)-3-chloro-1,7-naphthyridin-8-amine], the IC50 stood at 5.4 nM in test [1] (average IC50, cell assay); 0.82 nM in test [2] (average IC50, enzyme assay); 23800 nM on Cathepsin D (Cat D).
For `CC1(C)C(N)=N[C@](C)(c2cc(Nc3nccc4nc(C(F)(F)F)cnc34)cnc2F)CS1(=O)=O` [Example 224, N-(5-((3R)-5-amino-3,6,6-trimethyl-1,1-dioxido-3,6-dihydro-2H-1,4-thiazin-3-yl)-6-fluoro-3-pyridinyl)-2-(trifluoromethyl)pyrido[3,4-b]pyrazin-5-amine], in that order: 39.9 nM, 16 nM and 457000 nM.

As a reminder, the IC50 is the concentration at which inhibition is half-maximal.
